21 compounds from patent publication US20200079766A1, “MONOCYCLIC OGA INHIBITOR COMPOUNDS” (Janssen Pharmaceutica NV, priority 2016, published 2020) can be followed below.

Experiment [1] concerns OGA in HEK293 cells inducible for P301L mutant human Tau (isoform 2N4R). As to the kind of experiment: OGA cellular assay: immunocytochemical detection of O-GlcNAcylated proteins (CTD110.6 antibody) after 6 h incubation. The settings on record: for Emax / EC50: Homo sapiens, HEK293, 6 h; for EC50: read-out: Cellular hOGA, pEC50 (converted). The format is cell-based. Here is the method: HEK293 cells inducible for P301L mutant human Tau (isoform 2N4R) were established at Janssen. Thiamet-G was used for both plate validation (high control) and as reference compound (reference EC50 assay validation). OGA inhibition is evaluated through the immunocytochemical (ICC) detection of O-GlcNAcylated proteins by the use of a monoclonal antibody (CTD110.6; Cell Signaling, #9875) detecting O-GlcNAcylated residues as previoulsy described (Dorfmueller et al. 2010 Chemistry & biology, 17:1250). Inhibition of OGA will result in an increase of O-GlcNAcylated protein levels resulting in an increased signal in the experiment. Cell nuclei are stained with Hoechst to give a cell culture quality control and a rough estimate of immediate compounds toxicity, if any. ICC pictures are imaged with a Perkin Elmer Opera Phenix plate microscope and quantified with the provided software Perkin Elmer Harmony 4.1.
Cells were propagated in DMEM high Glucose (Sigma, # D5796) following standard procedures. 2 days before the cell assay cells are split, counted and seeded in Poly-D-Lysine (PDL) coated 96-wells (Greiner, #655946) plate at a cell density of 12,000 cells per cm^2 (4,000 cells per well) in 100 μl of Assay Medium (Low Glucose medium is used to reduce basal levels of GlcNAcylation) (Park et al. 2014 The Journal of biological chemistry 289:13519). At the day of compound test medium from assay plates was removed and replenished with 90 μl of fresh Assay Medium. 10 μl of compounds at a 10 fold final concentration were added to the wells. Plates were centrifuged shortly before incubation in the cell incubator for 6 hours. DMSO concentration was set to 0.2%. Medium is discarded by applying vacuum. For staining of cells medium was removed and cells washed once with 100 μl D-PBS (Sigma, # D8537). From next step onwards unless other stated assay volume was always 50 μl and incubation was performed without agitation and at room temperature. Cells were fixed in 50 μl of a 4% paraformaldehyde (PFA, Alpha aesar, #043368) PBS solution for 15 minutes at room temperature. […] Before analysis samples were washed 2 times manually for 5 minutes in ICC base buffer.
Imaging is performed using Perkin Elmer Phenix Opera using a water 20× objective and recording 9 fields per well. Intensity readout at 488 nm is used as a measure of O-GlcNAcylation level of total proteins in wells. To assess potential toxicity of compounds nuclei were counted using the Hoechst staining. IC50-values are calculated using parametric non-linear regression model fitting. As a maximum inhibition Thiamet G at a 200 uM concentration is present on each plate. In addition, a concentration response of Thiamet G is calculated on each plate.

The target in experiment [2] is T1, recombinant human Meningioma Expressed Antigen 5 (MGEA5), also referred to as O-GlcNAcase (OGA) (Homo sapiens, UniProt O60502).
T1 construct: Full length OGA enzyme was purchased at OriGene (cat # TP322411); purchased OriGene TP322411
T1 sequence (O60502 1-916): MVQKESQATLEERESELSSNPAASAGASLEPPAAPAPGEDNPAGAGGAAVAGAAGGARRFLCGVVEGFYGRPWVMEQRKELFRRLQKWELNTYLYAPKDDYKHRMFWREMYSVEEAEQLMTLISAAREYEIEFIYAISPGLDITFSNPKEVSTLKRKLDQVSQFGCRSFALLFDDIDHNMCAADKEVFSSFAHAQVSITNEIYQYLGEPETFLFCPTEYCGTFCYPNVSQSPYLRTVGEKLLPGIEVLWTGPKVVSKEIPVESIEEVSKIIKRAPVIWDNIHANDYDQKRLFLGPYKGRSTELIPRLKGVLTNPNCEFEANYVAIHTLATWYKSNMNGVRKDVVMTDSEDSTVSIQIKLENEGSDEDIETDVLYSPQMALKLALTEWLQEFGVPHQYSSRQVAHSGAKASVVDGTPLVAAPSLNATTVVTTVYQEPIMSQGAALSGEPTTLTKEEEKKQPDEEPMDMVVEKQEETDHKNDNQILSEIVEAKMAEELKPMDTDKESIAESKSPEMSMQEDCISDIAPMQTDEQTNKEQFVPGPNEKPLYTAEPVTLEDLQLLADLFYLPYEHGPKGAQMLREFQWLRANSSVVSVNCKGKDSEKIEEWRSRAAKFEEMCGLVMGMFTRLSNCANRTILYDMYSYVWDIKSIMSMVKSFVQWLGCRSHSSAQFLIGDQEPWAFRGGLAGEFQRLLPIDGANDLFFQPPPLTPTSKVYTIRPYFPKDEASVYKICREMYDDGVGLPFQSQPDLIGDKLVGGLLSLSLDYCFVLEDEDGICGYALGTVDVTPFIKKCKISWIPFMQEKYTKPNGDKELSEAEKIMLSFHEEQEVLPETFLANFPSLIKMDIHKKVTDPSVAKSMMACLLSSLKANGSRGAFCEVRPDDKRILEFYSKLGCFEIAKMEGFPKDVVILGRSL
As to the kind of experiment: OGA biochemical assay: inhibition of FM-GlcNAc hydrolysis, fluorescence; protocol A (10 nM OGA, 1 h) or protocol B (2 nM OGA, 6 h). The following applies: Enzymatic protocol B (2 nM OGA, 6 h); for IC50: read-out: Enzymatic hOGA, pIC50 (converted). An excerpt:
The assay is based on the inhibition of the hydrolysis of fluorescein mono-3-D-N-Acetyl-Glucosamine (FM-GlcNAc) (Mariappa et al. 2015, Biochem J 470:255) by the recombinant human Meningioma Expressed Antigen 5 (MGEA5), also referred to as O-GlcNAcase (OGA). The hydrolysis FM-GlcNAc (Marker Gene technologies, cat # M1485) results in the formation of ß-D-N-glucosamineacetate and fluorescein. The fluorescence of the latter can be measured at excitation wavelength 485 nm and emission wavelength 538 nm. An increase in enzyme activity results in an increase in fluorescence signal. Full length OGA enzyme was purchased at OriGene (cat # TP322411). The enzyme was stored in 25 mM Tris.HCl, pH 7.3, 100 mM glycine, 10% glycerol at −20° C. Thiamet G and GlcNAcStatin were tested as reference compounds (Yuzwa et al. 2008 Nature Chemical Biology 4:483; Yuzwa et al. 2012 Nature Chemical Biology 8:393). The assay was performed in 200 mM Citrate/phosphate buffer supplemented with 0.005% Tween-20. 35.6 g Na2HPO42H2O (Sigma, # C0759) were dissolved in 1 L water to obtain a 200 mM solution. 19.2 g citric acid (Merck, #1.06580) was dissolved in 1 L water to obtain a 100 mM solution. pH of the sodiumphosphate solution was adjusted with the citric acid solution to 7.2. The buffer to stop the reaction consists of a 500 mM Carbonate buffer, pH 11.0. 734 mg
FM-GlcNAc were dissolved in 5.48 mL DMSO to obtain a 250 mM solution and was stored at −20° C. OGA was used at a 10 nM (protocol A) or 2 nM (protocol B) concentration and FM-GlcNAc at a 100 uM final concentration. Dilutions were prepared in assay buffer.
50 nl of a compound dissolved in DMSO was dispensed on Black Proxiplate™ 384 Plus Assay plates (Perkin Elmer, #6008269) and 3 μl fl-OGA enzyme mix added subsequently. Plates were pre-incubated for 60 min at room temperature and then 2 μl FM-GlcNAc substrate mix added. […] Plates were briefly centrifuged for 1 min at 1000 rpm and incubate at room temperature for 1 h (10 nM OGA, protocol A) or 6 h (2 nM OGA, protocol B). To stop the reaction 5 μl STOP buffer were added and plates centrifuge again 1 min at 1000 rpm. Fluorescence was quantified in the Thermo Scientific Fluoroskan Ascent or the PerkinElmer EnVision with excitation wavelength 485 nm and emission wavelength 538 nm.
For analysis a best-fit curve is fitted by a minimum sum of squares method. From this an IC50 value and Hill coefficient was obtained. High control (no inhibitor) and low control (saturating concentrations of standard inhibitor) were used to define the minimum and maximum values.

As a reminder, the Emax is the maximal effect, on the per cent scale that the assay sets. On to `Cc1cc(O[C@@H]2CCCN(C(C)c3ccc4nccnc4c3)C2)cc(C)n1` (mixture of isomers) [compound 19], for which the Emax in experiment [1] (maximum = Thiamet G 200 uM) turned out to be 73.3%. In addition, the EC50 in experiment [1] was 1380 nM. Besides, in experiment [2], the Emax is 100% and the IC50 was 6.92 nM.

On to `Cc1cc(C[C@H]2CCN(C(C)c3ccc4sc(C)nc4c3)C2)cc(C)n1` (mixture of isomers) [compound 87], for which, in experiment [1] (maximum = Thiamet G 200 uM), the Emax was determined as 28.6%. In addition, in experiment [1], the EC50 is more than 1000 nM. In experiment [2], the Emax was 101% and the IC50 was 58.9 nM.

In experiment [1] (maximum = Thiamet G 200 uM), `Cc1cc(C[C@H]2CCN(C(C)c3ccc4scnc4c3)C2)cc(C)n1` (mixture of isomers) [compound 88] had an Emax of 50.7%. Further, the EC50 in experiment [1] is 603 nM.

In the case of `Cc1cc(C[C@H]2CCN(C(C)c3ccc4c(c3)OCO4)C2)cc(C)n1` (mixture of isomers) [compound 93], the Emax in experiment [1] (maximum = Thiamet G 200 uM) worked out at 37.7%; in experiment [2] it was 98.4%. For the same compound, in experiment [1], the EC50 is more than 1000 nM. The IC50 in experiment [2] is 309 nM.

Consider `Cc1cc(CC2CCN(C(C)c3ccc4c(c3)OCCO4)C2)cc(C)n1.Cl.Cl` (mixture of isomers) [compound 95], for which the “Cellular hOGA; pEC50” value in experiment [1] is on record as less than 6. In experiment [1] (maximum = Thiamet G 200 uM), the “Cellular Emax (%)” value turned out to be 38.2%. Further, in experiment [2], the “Enzymatic Emax (%)” value came to 101% and the “Enzymatic hOGA; pIC50” value was found to be 6.81.

In experiment [1] (maximum = Thiamet G 200 uM), `Cc1cc(C[C@H]2CCN(C(C)c3ccc4nccnc4c3)C2)cc(C)n1` (mixture of isomers) [compound 100] had an Emax of 23.1%. In addition, the EC50 in experiment [1] is more than 1000 nM. Moreover, in experiment [2], the Emax came to 97% and the IC50 is 427 nM.

Regarding `CC(=O)Nc1ncc(CN2CCC[C@H](Oc3ccnc(C)c3)C2)s1` (racemic) [compound 17], the Emax in experiment [1] (maximum = Thiamet G 200 uM) was determined as 96.2%; in experiment [2] it was 100%. Further, in experiment [1], the EC50 is 389 nM. Moreover, in experiment [2], the IC50 is 64.6 nM.

As for `CC(=O)Nc1ncc(C(C)N2CCCC(COc3cc(C)nc(C)c3)C2)s1` (racemic) [compound 133], the Emax in experiment [1] (maximum = Thiamet G 200 uM) is 98.9%. In addition, the EC50 in experiment [1] is 11.2 nM. Further, in experiment [2], the Emax is 101% and the IC50 is 3.89 nM.

In turn, `Cc1cc(CC2CCCN(C(C)c3ccc4nccnc4c3)C2)cc(C)n1` (racemic) [compound 139] had an Emax in experiment [1] (maximum = Thiamet G 200 uM) of 75%. The EC50 in experiment [1] was 170 nM. Further, in experiment [2], the Emax worked out at 101% and the IC50 is 10 nM.

As to `Cc1cc(CC2CCCN(C(C)c3ccc4c(c3)OCO4)C2)cc(C)n1` (racemic) [compound 141], the values for the Emax in experiment [1] (maximum = Thiamet G 200 uM) and in experiment [2] were 83.5% and 102%, respectively. The EC50 in experiment [1] is 87.1 nM. Moreover, the IC50 in experiment [2] is 11 nM.

With `Cc1cc(CC2CCCN(C(C)c3ccc4c(c3)OCCO4)C2)cc(C)n1` (racemic) [compound 142], the Emax in experiment [1] (maximum = Thiamet G 200 uM) was found to be 100%; in experiment [2], 102%. Moreover, the EC50 in experiment [1] is 60.3 nM. Moreover, the IC50 in experiment [2] was 4.9 nM.

For `CC(=O)Nc1ncc(CN2CCC[C@H](Cc3cnc(C)c(C)n3)C2)s1` [compound 124], in experiment [2], the Emax worked out at 100% and the IC50 is 1.74 nM.

`CC(=O)Nc1ncc(CN2CCC[C@H](Cc3ccc(C)nc3C#N)C2)s1` [compound 125]: in experiment [2], the Emax was found to be 100% and the IC50 is 1.7 nM.

`Cc1cc(C[C@H]2CCCN(Cc3ccc4c(c3)OCO4)C2)cc(C)n1` [compound 146]: in experiment [2], the Emax is 93.5% and the IC50 was 1000 nM.

Turning to `Cc1cc(C[C@H]2CCCN(Cc3cc4ccccc4n3C)C2)cc(C)n1` [compound 150], in experiment [2], the Emax came out at 20.8% and the IC50 is more than 10000 nM.

As for `Cc1cc(C[C@H]2CCCN(Cc3nc4ccccc4[nH]3)C2)cc(C)n1` [compound 151], in experiment [2], the Emax came to 2.86% and the IC50 was more than 10000 nM.

As to `Cc1cc(C[C@H]2CCCN(Cc3nc4ccccc4n3C)C2)cc(C)n1` [compound 153], in experiment [2], the Emax came out at 23.9% and the IC50 is more than 10000 nM.

As to `CC(=O)Nc1ncc(CN2CC(COc3cc(C)nc(C)n3)CC(F)(F)C2)s1` (centres unmarked) [compound 161], in experiment [2], the Emax was found to be 48% and the IC50 was more than 10000 nM.

As for `CC(=O)Nc1ncc(CN2CCC(F)(F)C(COc3cc(C)nc(C)n3)C2)s1` (centres unmarked) [compound 162], in experiment [2], the Emax was 91% and the IC50 is 1050 nM.

Consider `CC(=O)Nc1ncc(CN2CCC(F)C(COc3cc(C)nc(C)n3)C2)s1` (centres unmarked) [compound 163], for which, in experiment [2], the Emax amounted to 101% and the IC50 was 63.1 nM.

For `CC(=O)Nc1ncc(CN2CCC[C@H](Cc3cc(C)nc(C)c3)C2)n1C` [compound 174], in experiment [2], the Emax is 40.9% and the IC50 was more than 10000 nM.
